In patent US20190375708A1 (VenatoRx Pharmaceuticals, Inc., priority 2018, published 2019):

How the values were obtained:
[1] = system: HBV replication in HepAD38 cells; test: Anti-HBV replication assay in HepAD38 cells (QPCR of extracellular HBV DNA); assay type: cell-based, HBV (genotype D, serotype ayw); details: Hepatitis B virus, 168 h, 7 days incubation, extracellular HBV DNA by QPCR, read-out: Anti-HBV EC50
Procedure, shortened: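 Compounds (1 log10 serial dilutions, […]) were left 7 days on tetracycline-free HepAD38 cultures, a HepG2 line with tet-controlled HBV genotype D. EC50 came from 4-parameter regression of percent inhibition versus vehicle, using supernatant HBV DNA copies/mL measured by QPCR.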

[2] = In vitro cytotoxicity assay (MTT cell viability) in HepG2 cells; assay type: cell-based, human; details: human
Procedure, shortened: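 Read-out: MTT formazan absorbance at 492 nm, expressed as % of vehicle signal; CC50 by 4-parameter non-linear regression. Parental HepG2, 20,000 cells/well, treated 7 days with compound from 30 μM down to 1.0 nM.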

Cc1c(C(=O)NC2(C)CCCC2)c2n(c1C(=O)C(=O)NC(C)(C)CO)CCCC2 [Example 753, 3-(2-((1-hydroxy-2-methylpropan-2-yl)amino)-2-oxoacetyl)-2-methyl-N-(1-methylcyclopentyl)-5,6,7,8-tetrahydroindolizine-1-carboamide]
EC50 [1]: 50 to 499 nM | CC50 at 7 days [2]: > 30000 nM

Cc1cc(NC(=O)c2c(Cl)c(C(=O)C(=O)NC(C)(C)C)n(C)c2C)ccc1F [Example 363, 5-(2-(tert-butylamino)-2-oxoacetyl)-4-chloro-N-(4-fluoro-3-methylphenyl)-1,2-dimethyl-1H-pyrrole-3-carboxamide]
EC50 [1]: < 50 nM | CC50 at 7 days [2]: > 30000 nM

Cc1cc(NC(=O)c2c(C)c(C(=O)C(=O)N[C@H](CO)[C@@H](C)O)n(C)c2C)cnc1F [Example 185, 5-(2-(((2R,3R)-1,3-dihydroxybutan-2-yl)amino)-2-oxoacetyl)-N-(6-fluoro-5-methylpyridin-3-yl)-1,2,4-trimethyl-1H-pyrrole--3 carboxamide]
EC50 [1]: 500 to 1000 nM | CC50 at 7 days [2]: > 30000 nM

Cc1cc(NC(=O)c2c(Cl)c(C(=O)C(=O)N[C@H]3COC[C@@H]3O)n3c2CCCC3)ccc1F [Example 505, 2-chloro-N-(4-fluoro-3-methylphenyl)-3-(2-(((3S,4R)-4-hydroxytetrahydrofuran-3-yl)amino)-2-oxoacetyl)-5,6,7,8-tetrahydroindolizine-1-carboxamide]
EC50 [1]: 500 to 1000 nM | CC50 at 7 days [2]: > 30000 nM

Cc1noc([C@H](C)NC(=O)C(=O)c2c(C)c(C(=O)Nc3ccc(F)c(C)c3)c(C)n2C)n1 [Example 215, (S)-N-(4-fluoro-3-methylphenyl)-1,2,4-trimethyl-5-(2-((1-(3-methyl-1,2,4-oxadiazol-5-yl)ethyl)amino)-2-oxoacetyl)-1H-pyrrole-3-carboxamide]
EC50 [1]: < 50 nM | CC50 at 7 days [2]: > 30000 nM

Cc1cc(NC(=O)c2c(C)c(C(=O)C(=O)NC3(CO)CC(F)(F)C3)n(C)c2Cl)ccc1F [Example 387, 2-chloro-5-(2-((3,3-difluoro-1-(hydroxymethyl)cyclobutyl)amino)-2-oxoacetyl)-N-(4-fluoro-3-methylphenyl)-1,4-dimethyl-1H-pyrrole-3-carboxamide]
EC50 [1]: > 1000 nM | CC50 at 7 days [2]: 5000 to 30000 nM

Cc1cc(NC(=O)c2c(C)c(C(=O)C(=O)NC3(CO)CC(F)(F)C3)n3c2CCCC3)ccc1F [Example 441, 3-(2-((3,3-difluoro-1-(hydroxymethyl)cyclobutyl)amino)-2-oxoacetyl)-N-(4-fluoro-3-methylphenyl)-2-methyl-5,6,7,8-tetrahydroindolizine-1-carboxamide]
EC50 [1]: < 50 nM | CC50 at 7 days [2]: 5000 to 30000 nM

Cc1cc(NC(=O)c2c(C)c(C(=O)C(=O)N[C@H]3CNC(=O)C34CC4)n(C)c2C)ccc1F [Example 710, (R)-N-(4-fluoro-3-methylphenyl)-1,2,4-trimethyl-5-(2-oxo-2-((4-oxo-5-azaspiro[2.4]heptan-7-yl)amino)acetyl)-1H-pyrrole-3-carboxamide]
EC50 [1]: < 50 nM | CC50 at 7 days [2]: > 30000 nM

Cc1cc(NC(=O)c2c(C)c(C(=O)C(=O)NC3COCC(O)C3)n(C)c2C)ccc1F (stereo not shown) [Example 608, N-(4-fluoro-3-methylphenyl)-5-(2-((5-hydroxytetrahydro-2H-pyran-3-yl)amino)-2-oxoacetyl)-1,2,4-trimethyl-1H-pyrrole-3-carboxamide]
EC50 [1]: < 50 nM | CC50 at 7 days [2]: > 30000 nM

CC(=O)N1CCC[C@@H](NC(=O)C(=O)c2c(C)c(C(=O)Nc3ccc(F)c(C)c3)c(C)n2C)C1 [Example 639, (R)-5-(2-((1-acetylpiperidin-3-yl)amino)-2-oxoacetyl)-N-(4-fluoro-3-methylphenyl)-1,2,4-trimethyl-1H-pyrrole-3-carboxamide]
EC50 [1]: < 50 nM | CC50 at 7 days [2]: > 30000 nM

Cc1cc(NC(=O)c2c(C)c(C(=O)C(=O)N[C@H]3CC[C@](C)(O)CC3)n3c2CCCC3)ccc1F [Example 740, N-(4-fluoro-3-methylphenyl)-3-(2-(((1r,4r)-4-hydroxy-4-methylcyclohexyl)amino)-2-oxoacetyl)-2-methyl-5,6,7,8-tetrahydroindolizine-1-carboxamide]
EC50 [1]: < 50 nM | CC50 at 7 days [2]: > 30000 nM

Cc1cc(NC(=O)c2c(C)c(C(=O)C(=O)N[C@@H]3CCN(S(C)(=O)=O)C3)n(C)c2C)ccc1F [Example 665, (R)-N-(4-fluoro-3-methylphenyl)-1,2,4-trimethyl-5-(2-((1-(methylsulfonyl)pyrrolidin-3-yl)amino)-2-oxoacetyl)-1H-pyrrole-3-carboxamide]
EC50 [1]: < 50 nM | CC50 at 7 days [2]: 5000 to 30000 nM

CC[C@H](C)NC(=O)C(=O)c1c(Cl)c(C(=O)Nc2cnc(F)c(C)c2)c2n1CCCC2 [Example 729, (S)-3-(2-(sec-butylamino)-2-oxoacetyl)-2-chloro-N-(6-fluoro-5-methylpyridin-3-yl)-5,6,7,8-tetrahydroindolizine-1-carboxamide]
EC50 [1]: 50 to 499 nM | CC50 at 7 days [2]: > 30000 nM

Cc1cc(NC(=O)c2c(C)c(C(=O)C(=O)NCC(C)(C)C)n(C)c2C)ccc1F [Example 64, N-(4-fluoro-3-methylphenyl)-1,2,4-trimethyl-5-(2-(neopentylamino)-2-oxoacetyl)-1H-pyrrole-3-carboxamide]
EC50 [1]: < 50 nM | CC50 at 7 days [2]: 5000 to 30000 nM

Cc1c(C(=O)Nc2ccc(F)nc2)c(C)n(C)c1C(=O)C(=O)NC(C)C(F)(F)F (stereo not shown) [Example 119, N-(6-fluoropyridin-3-yl)-1,2,4-trimethyl-5-(2-oxo-2-((1,1,1-trifluoropropan-2-yl)amino)acetyl)-1H-pyrrole-3-carboxamide]
EC50 [1]: < 50 nM | CC50 at 7 days [2]: > 30000 nM

Cc1cc(NC(=O)c2c(C)c(C(=O)C(=O)NC3(C)CC=CCC3)n(C)c2C)ccc1F (stereo not shown) [Example 694, N-(4-fluoro-3-methylphenyl)-1,2,4-trimethyl-5-(2-((1-methylcyclohex-3-en-1-yl)amino)-2-oxoacetyl)-1H-pyrrole-3-carboxamide]
EC50 [1]: < 50 nM | CC50 at 7 days [2]: > 30000 nM

Cc1noc([C@@H](C)NC(=O)C(=O)c2c(C)c(C(=O)Nc3ccc(F)c(F)c3)c3n2CCCC3)n1 [Example 454, (R)-N-(3,4-difluorophenyl)-2-methyl-3-(2-((1-(3-methyl-1,2,4-oxadiazol-5-yl)ethyl)amino)-2-oxoacetyl) 5,6,7,8-tetrahydroindolizine-1-carboxamide]
EC50 [1]: 50 to 499 nM | CC50 at 7 days [2]: > 30000 nM

Cc1cc(NC(=O)c2c(C)c(C(=O)C(=O)NC3(C(N)=O)C4CC5CC(C4)CC3C5)n(C)c2C)ccc1F (stereo not shown) [Example 43, 5-(2-(((1r,3r,5r,7r)-2-carbamoyladamantan-2-yl)amino)-2-oxoacetyl)-N-(4-fluoro-3-methylphenyl)-1,2,4-trimethyl-1H-pyrrole-3-carboxamide]
EC50 [1]: < 50 nM | CC50 at 7 days [2]: 500 to 4990 nM

Cc1cc(NC(=O)c2c(C)c(C(=O)C(=O)N[C@H]3CC[C@@H](C#N)CC3)n(C)c2C)ccc1F [Example 283]
EC50 [1]: < 50 nM | CC50 at 7 days [2]: 5000 to 30000 nM

Cc1cc(NC(=O)c2c(C)c(C(=O)C(=O)NCC(C)(C)N3CCOCC3)n(C)c2C)ccc1F [Example 352, N-(4-fluoro-3-methylphenyl)-1,2,4-trimethyl-5-(2-((2-methyl-2-morpholinopropyl)amino)-2-oxoacetyl)-1H-pyrrole-3-carboxamide]
EC50 [1]: 50 to 499 nM | CC50 at 7 days [2]: > 30000 nM

Cc1cc(NC(=O)c2c(C)c(C(=O)C(=O)N[C@H]3CCC[C@H]3O)n(C)c2C)ccc1F [Example 94, N-(4-fluoro-3-methylphenyl)-5-(2-(((1S,2R)-2-hydroxycyclopentyl)amino)-2-oxoacetyl)-1,2,4-trimethyl-1H-pyrrole-3-carboxamide]
EC50 [1]: < 50 nM | CC50 at 7 days [2]: > 30000 nM

Cc1c(C(=O)Nc2cccc(C(F)F)c2)c(C)n(C)c1C(=O)C(=O)N[C@]1(C)CC[C@@H](O)CC1 [Example 700, N-(3-(difluoromethyl)phenyl)-5-(2-(((1r,4r)-4-hydroxy-1-methylcyclohexyl)amino)-2-oxoacetyl)-1,2,4-rimethyl-1H-pyrrole-3-carboxamide]
EC50 [1]: < 50 nM | CC50 at 7 days [2]: > 30000 nM

Cc1cc(NC(=O)c2c(C)c(C(=O)C(=O)NC(C)(C)C(C)(C)O)n(C)c2C)ccc1F [Example 617, N-(4-fluoro-3-methylphenyl)-5-(2-((3-hydroxy-2,3-dimethylbutan-2-yl)amino)-2-oxoacetyl)-1,2,4-trimethyl-1H-pyrrole-3-carboxamide]
EC50 [1]: < 50 nM | CC50 at 7 days [2]: > 30000 nM

Cc1c(C(=O)Nc2cncc(Cl)c2)c(C)n(C)c1C(=O)C(=O)N[C@H]1CC[C@@H](O)CC1 [Example 726, N-(5-chloropyridin-3-yl)-5-(2-(((1s,4s)-4-hydroxycyclohexyl)amino)-2-oxoacetyl)-1,2,4-trimethyl-1H-pyrrole-3-carboxamide]
EC50 [1]: < 50 nM | CC50 at 7 days [2]: > 30000 nM

Cc1cc(NC(=O)c2c(Cl)c(C(=O)C(=O)NC3(CO)CC(F)(F)C3)n3c2CCCC3)cnc1F [Example 507, 2-chloro-3-(2-((3,3-difluoro-1-(hydroxymethyl)cyclobutyl)amino)-2-oxoacetyl)-N-(6-fluoro-5-methylpyridin-3-yl)-5,6,7,8-tetrahydroindolizine-1-carboxamide]
EC50 [1]: 50 to 499 nM | CC50 at 7 days [2]: > 30000 nM

Cc1cc(NC(=O)c2c(C)c(C(=O)C(=O)NC(C)(C)C(=O)N3CCC(O)CC3)n(C)c2C)ccc1F [Example 597, N-(4-fluoro-3-methylphenyl)-5-(2-((1-(4-hydroxypiperidin-1-yl)-2-methyl-1-oxopropan-2-yl)amino)-2-oxoacetyl)-1,2,4-trimethyl-1H-pyrrole-3-carboxamide]
EC50 [1]: < 50 nM | CC50 at 7 days [2]: > 30000 nM
